For this test, the system named is HCV pseudoparticles. As to the kind of experiment: HCV pseudoparticle infection assay (luciferase reporter, Huh7 cells). The class given is cell-based, HCV (genotype 1b E1 and E2 envelope). To be noted: Hepatitis C virus, genotype 1b, Huh-7, 48 h, HCV pseudoparticles (genotype 1b), luciferase activity 2 days after infection. On the technique in general: Reporter assays use an easily measured gene product as a stand-in for the process of interest.

Drawing on patent publication US8765944B2, “Compounds for the treatment of hepatitis C” (priority 2010, dated 2014), this text covers EC50 for 4 compounds.

As a reminder, the EC50 is the concentration giving half of the maximal effect. A higher EC50 goes with a need for much substance.

Under “class”, `COCC1(S(=O)(=O)NC(=O)c2ccc(N(C)c3nc(OCC(F)(F)F)nc(N(C)C4(c5ccc(Cl)cc5)CC4)n3)cc2)CC1` [Example 8010] showed a 50% effective concentration (EC50) of 1000 to 5000 nM.
`CC(C)C(=O)NS(=O)(=O)c1ccc(Nc2nc(NC3(c4ccc(Cl)cc4)CC3)nc(OCC(F)(F)F)n2)cc1` [Example 8007] yielded an EC50 of 5400 nM. Under “class”, this compound came in with an EC50 of 1000 to 5000 nM.
In the same order, the values of `CC(C)(C)CNCC1(C(=O)NS(=O)(=O)c2ccc(Nc3nc(NC4(c5ccc(Cl)cc5)CC4)nc(OCC(F)(F)F)n3)cc2)CC1` [Example 3007] are 2800 nM and 1000 to 5000 nM.
`CC(C)(C)OC(=O)N1CCC(C(=O)NS(=O)(=O)CCNC(=O)c2ccc(Nc3nc(NC4(c5ccc(Cl)cc5)CC4)nc(OCC(F)(F)F)n3)cc2)CC1` [Example 4005] showed an EC50 (class) of 0.5 to 100 nM.
